Source: ChEMBL document CHEMBL1156268, “Michael acceptor based antiplasmodial and antitrypanosomal cysteine protease inhibitors with unusual amino acids” (J Med Chem, 2010)
Activity calls are given as the source filed them. No cut-off for these calls is given here.

Experiments:
Plasmodium falciparum [1] = experiment: Antiplasmodial activity against Plasmodium falciparum W2 by flow cytometry; type: functional, organism-based
[2] = Inhibition of Plasmodium falciparum recombinant falcipain-2 using Cbz-Leu-Arg-AMC as substrate by standard fluorescence assay
[3] = Inhibition of Plasmodium falciparum recombinant falcipain-2 using Cbz-Phe-Arg-AMC as substrate by standard fluorescence assay
[4] = Inhibition of Plasmodium falciparum recombinant falcipain-3 by standard fluorescence assay
Rhodesain [5] = target: T1, Rhodesain (Trypanosoma brucei rhodesiense, UniProt Q95PM0); experiment: (§1) Inhibition of Trypanosoma brucei rhodesiense recombinant rhodesain by standard fluorescence assay
T1 sequence (Q95PM0 whole entry): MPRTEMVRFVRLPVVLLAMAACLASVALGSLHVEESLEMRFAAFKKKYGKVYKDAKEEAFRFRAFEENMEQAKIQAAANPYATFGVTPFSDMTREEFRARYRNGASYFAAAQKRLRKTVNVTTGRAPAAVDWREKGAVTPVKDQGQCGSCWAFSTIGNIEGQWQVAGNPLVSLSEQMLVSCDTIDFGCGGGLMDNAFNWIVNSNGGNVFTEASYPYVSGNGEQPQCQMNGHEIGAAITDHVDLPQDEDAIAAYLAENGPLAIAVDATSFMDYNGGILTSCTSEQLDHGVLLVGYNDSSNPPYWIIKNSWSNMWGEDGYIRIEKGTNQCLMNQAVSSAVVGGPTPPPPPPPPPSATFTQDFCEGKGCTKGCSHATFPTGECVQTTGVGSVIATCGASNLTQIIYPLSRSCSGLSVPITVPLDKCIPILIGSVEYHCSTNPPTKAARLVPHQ

[6] = Selectivity index, ratio of IC50 for mouse J774.1 cells to IC50 for Trypanosoma brucei brucei; type: toxicity; settings: J774.1 cells versus Trypanosoma brucei brucei, read-out: Ratio IC50
[7] = Cytotoxicity against mouse J774.1 cells; type: cell-based
Plasmodium falciparum [8] = experiment: Antiplasmodial activity against Plasmodium falciparum FCBR by flow cytometry; type: functional, organism-based; settings: FCBR/Columbia
[9] = test system: Trypanosoma brucei brucei; experiment: Antitrypanosomal activity against Trypanosoma brucei brucei; type: functional, organism-based
[10] = target: Rhodesain (Trypanosoma brucei rhodesiense) (UniProt Q95PM0); experiment: as §1; settings: TDE = time-dependent effect
Rhodesain (Trypanosoma brucei rhodesiense), sequence (Q95PM0 1-450): as the sequence (Q95PM0 whole entry) above

Plasmodium falciparum [11] = experiment: Antiplasmodial activity against Plasmodium falciparum W2 at 10 uM by flow cytometry; type: functional
[12] = target: Rhodesain (Trypanosoma brucei rhodesiense) (UniProt Q95PM0); experiment: Inhibition of Trypanosoma brucei rhodesiense recombinant rhodesain at 100 uM by standard fluorescence assay
Plasmodium falciparum [13] = experiment: Inhibition of Plasmodium falciparum recombinant falcipain-2 at 100 uM by standard fluorescence assay
Rhodesain [14] = target: T1, Rhodesain; experiment: Inhibition of Trypanosoma brucei rhodesiense recombinant rhodesain by standard fluorescence assay in presence of DTT
Rhodesain [15] = target: T1, Rhodesain; experiment: Inhibition of Trypanosoma brucei rhodesiense recombinant rhodesain using low concentration of enzyme by standard fluorescence assay
Rhodesain [16] = target: T1, Rhodesain; experiment: Inhibition of Trypanosoma brucei rhodesiense recombinant rhodesain using low concentration of enzyme by standard fluorescence assay in presence of detergent
Rhodesain [17] = target: T1, Rhodesain; experiment: Inhibition of Trypanosoma brucei rhodesiense recombinant rhodesain using high concentration of enzyme by standard fluorescence assay in presence of detergent
Rhodesain [18] = target: T1, Rhodesain; experiment: Inhibition of Trypanosoma brucei rhodesiense recombinant rhodesain using high concentration of enzyme by standard fluorescence assay

| Compound | IC50 (Plasmodium falciparum [1]) [µM] | Ki [2] [µM] | Ki [3] [µM] | Ki [4] [µM] | Ki (Rhodesain [5]) [µM] | selectivity ratio [6] | IC50 [7] [µM] | IC50 (Plasmodium falciparum [8]) [µM] | IC50 [9] [µM] | Time-dependent inhibition (qualitative) [10] | inhibition at 10 µM (Plasmodium falciparum [11]) [%] | inhibition [12] | inhibition (Plasmodium falciparum [13]) | Ki (Rhodesain [14]) [µM] | Ki (Rhodesain [15]) [µM] | Ki (Rhodesain [16]) [µM] | Ki (Rhodesain [17]) [µM] | Ki (Rhodesain [18]) [µM] |
| --- | --- | --- | --- | --- | --- | --- | --- | --- | --- | --- | --- | --- | --- | --- | --- | --- | --- | --- |
| CCOC(=O)/C=C/CN[C@@H](CCC(N)=O)C(=O)N[C@H](C(=O)N[C@H](C(=O)N[C@@H](C)C(=O)OCc1ccccc1)C(C)C)C1CCCCC1 | 35.8 | 6.7 | 5.4 | 28.4 | 5.8 | – | – | – | – | – | – | – | – | – | – | – | – | – |
| CCOC(=O)/C=C/[C@@H](CCC(=O)NC(c1ccccc1)(c1ccccc1)c1ccccc1)NC(=O)[C@@H](NC(=O)OC(C)(C)C)c1ccccc1 | – | 0.49 | – | – | 0.14 | 17 | 60 | 0.9 | 3.5 | tde | – | – | – | – | – | – | – | – |
| CCOC(=O)/C=C\C(=O)N[C@@H](CCC(=O)NC(c1ccccc1)(c1ccccc1)c1ccccc1)C(=O)OC | – | – | – | – | – | – | – | – | 25.5 | – | 30 | inactive | inactive | – | – | – | – | – |
| CCOC(=O)/C=C/[C@H](CCC(=O)NC(c1ccccc1)(c1ccccc1)c1ccccc1)NC(=O)OC(C)(C)C | 4 | 1.8 | – | 8.2 | 4.3 | > 36 | > 100 | – | 2.8 | tde | – | – | – | 3.6 | – | – | – | – |
| CCOC(=O)/C=C/[C@H](CCC(=O)NC(c1ccccc1)(c1ccccc1)c1ccccc1)NC(=O)[C@@H](NC(=O)OC(C)(C)C)c1ccccc1 | 3.9 | 0.45 | – | 1.4 | 0.47 | – | – | – | 31 | tde | – | – | – | – | 0.64 | 0.3 | 0.4 | 0.64 |
